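A five-concentration, 48-hour dose response in 96-well plates underlies each endpoint, interpolated linearly between surrounding concentrations. Here, GI50 denotes the concentration required for 50% inhibition of growth.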 Calls of active or inactive are those of the source. No stated cut-off is given here; in the data, active = GI50 up to about 1.1 µM and inactive = higher.
Tests used:
Assay in all cases: growth of human tumour cells (NCI), 48 h
[1] = system: SNB-19
[2] = system: TK-10
[3] = system: SF-268
[4] = system: SNB-75
[5] = system: UACC-62
[6] = system: OVCAR-3
[7] = system: KM12
[8] = system: OVCAR-8
[9] = system: T47D
[10] = system: MDA-N
[11] = system: NCI-H23
[12] = system: LOX IMVI
[13] = system: UACC-257
[14] = system: SF-539
[15] = system: M14
[16] = system: BT-549
[17] = system: OVCAR-5
[18] = system: 786-0
[19] = system: HL-60

Structure (SMILES) | GI50 [1] | GI50 [2] | GI50 [3] | GI50 [4] | GI50 [5] | GI50 [6] | GI50 [7] | GI50 [8] | GI50 [9] | GI50 [10] | GI50 [11] | GI50 [12] | GI50 [13] | GI50 [14] | GI50 [15] | GI50 [16] | GI50 [17] | GI50 [18] | GI50 [19]
CCc1n[nH]c(=O)n1CCCCCCCCCCCCn1c(CC)n[nH]c1=O | 39.7 µM (inactive) | 33 µM (inactive) | 29.7 µM (inactive) | 21 µM (inactive) | 18.3 µM (inactive) | 37.8 µM (inactive) | 33.6 µM (inactive) | 24.7 µM (inactive) | 18 µM (inactive) | 32.1 µM (inactive) | 20.2 µM (inactive) | 24.8 µM (inactive) | 11.7 µM (inactive) | 48.4 µM (inactive) | 25.9 µM (inactive) | 26.8 µM (inactive) | 47.1 µM (inactive) | 35.5 µM (inactive) | –
COc1cc2c(cc1OC)C(=O)N(c1ccc(OCCN3CCCC3)cc1)C2 | > 100 µM (inactive) | > 100 µM (inactive) | > 100 µM (inactive) | – | > 100 µM (inactive) | > 100 µM (inactive) | > 100 µM (inactive) | > 100 µM (inactive) | > 100 µM (inactive) | > 100 µM (inactive) | > 100 µM (inactive) | > 100 µM (inactive) | > 100 µM (inactive) | > 100 µM (inactive) | > 100 µM (inactive) | > 100 µM (inactive) | > 100 µM (inactive) | > 100 µM (inactive) | > 100 µM (inactive)
CC1OC(OC2C(O)COC(OC3C(C)OC(OC4C(OC(=O)[C@]56CCC(C)(C)C[C@@H]5C5=CCC7[C@@]8(C)C[C@H](O)[C@H](OC9OC(CO)C(O)C(OC%10OC(CO)C(O)C(O)C%10O)C9O)[C@@](C)(CO)[C@@H]8CC[C@@]7(C)[C@]5(C)CC6)OCC(O)C4O)C(O)C3OC3OCC(O)(CO)C3O)C2O)C(O)C(O)C1O (some centres not stated) | 8.89 µM (inactive) | 9.79 µM (inactive) | 10 µM (inactive) | 11.2 µM (inactive) | 12.9 µM (inactive) | 9.64 µM (inactive) | 9.48 µM (inactive) | 9.84 µM (inactive) | 6.92 µM (inactive) | 10.2 µM (inactive) | 5.87 µM (inactive) | 8.51 µM (inactive) | 9.1 µM (inactive) | 8.83 µM (inactive) | 6.15 µM (inactive) | 5.19 µM (inactive) | 9.02 µM (inactive) | 8.09 µM (inactive) | –
CC(C)C[C@H](NC(=O)CCc1cccc2ccccc12)B(O)O | 5.43 µM (inactive) | 0.578 µM (active) | 1.32 µM (inactive) | 7.98 µM (inactive) | 1.3 µM (inactive) | 0.463 µM (active) | 1.89 µM (inactive) | 2.81 µM (inactive) | 1.25 µM (inactive) | 0.452 µM (active) | 1.16 µM (inactive) | 0.461 µM (active) | 1.2 µM (inactive) | 0.333 µM (active) | 0.942 µM (active) | 0.506 µM (active) | 0.908 µM (active) | 0.923 µM (active) | –
Cn1c(=O)c2nc(CCCCc3nc4c(=O)n(C)c(=S)n(C)c4[nH]3)[nH]c2n(C)c1=S | 76.6 µM (inactive) | > 100 µM (inactive) | > 100 µM (inactive) | 23.4 µM (inactive) | > 100 µM (inactive) | > 100 µM (inactive) | > 100 µM (inactive) | > 100 µM (inactive) | > 100 µM (inactive) | > 100 µM (inactive) | > 100 µM (inactive) | > 100 µM (inactive) | > 100 µM (inactive) | 40.8 µM (inactive) | > 100 µM (inactive) | > 100 µM (inactive) | > 100 µM (inactive) | > 100 µM (inactive) | –
C=C(C)C1CC2=C(O1)C(=O)c1cccc(O)c1C2=O (configuration not stated) | 1.95 µM (inactive) | 2.5 µM (inactive) | 0.333 µM (active) | 2.29 µM (inactive) | 0.883 µM (active) | 0.214 µM (active) | 1.69 µM (inactive) | – | 1.23 µM (inactive) | 0.064 µM (active) | 0.244 µM (active) | 4.26 µM (inactive) | 0.271 µM (active) | 0.671 µM (active) | 0.951 µM (active) | 0.406 µM (active) | 1.57 µM (inactive) | 9.12 µM (inactive) | –
